Test results published in patent US20080275058A1, “N-Substituted-1H-Quinoline-2,4-Diones, Preparation Method Thereof, And Pharmaceutical Composition Containing The Same” (KOREA RESEARCH INSTITUTE OF CHEMICAL TECHNOLOGY, priority 2005, published 2008).
Like-named read-outs stand apart in the source and are kept apart here.

Legend:
[1] = biological target: T1, Human serotonin 5-HT6 receptor (Homo sapiens, UniProt P50406); test: [3H]LSD binding assay on cloned 5-HT6 receptor membranes
T1 construct: made in house; host or cells: insect Sf21 cells (baculovirus vector BacPAK8)

5-HT7 = biological target: T2, 5-HT7 (Homo sapiens, UniProt P34969); test: Radioligand binding, 5-HT7 ([3H]LSD); conditions: Table 4; [3H]LSD 3 nM; read-out: Binding affinity, IC50 (nM) 5-HT7
T2 construct: purchased Euroscreen/BioSignal Packard Inc

hD4.2 receptor = biological target: T3, hD4.2 receptor (Homo sapiens, UniProt P21917, DEL265-296); test: Radioligand binding, dopamine D4 ([3H]YM-09151-2); conditions: Table 4; [3H]YM-09151-2 0.06 nM; read-out: Binding affinity, IC50 (nM) D4
T3 construct: purchased BioSignal Packard Inc., Montreal, Canada
T3 sequence (P21917 with tags, fused parts or gaps DEL265-296): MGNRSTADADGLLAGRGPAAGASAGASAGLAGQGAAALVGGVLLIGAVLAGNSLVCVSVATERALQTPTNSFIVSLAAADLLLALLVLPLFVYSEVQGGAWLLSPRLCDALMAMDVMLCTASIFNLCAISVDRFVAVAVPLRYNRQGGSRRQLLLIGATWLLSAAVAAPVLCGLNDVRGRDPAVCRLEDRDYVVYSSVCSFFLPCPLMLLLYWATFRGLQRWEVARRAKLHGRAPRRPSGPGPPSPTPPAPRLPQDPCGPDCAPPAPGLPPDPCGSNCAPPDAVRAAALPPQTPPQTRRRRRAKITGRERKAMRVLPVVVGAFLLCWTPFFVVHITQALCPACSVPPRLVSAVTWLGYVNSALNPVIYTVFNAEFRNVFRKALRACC
How it was run: (§1)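 IC50 values come from nonlinear fits of three displacement experiments, each using 7-8 test concentrations in duplicate. D2L and D3 membranes were labelled with 1 nM [3H]spiperone, and D4.2 with 0.06 nM [3H]YM-09151-2. All assays used pH 7.4 Tris buffers, with the D3 buffer adding 120 mM NaCl, KCl and CaCl2.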

5-HT1a = biological target: T4, 5-HT1a (Homo sapiens, UniProt P08908); test: Radioligand binding, 5-HT1a ([3H]8-OH-DPAT); conditions: Table 4; [3H]8-OH-DPAT 0.5 nM; read-out: Binding affinity, IC50 (nM) 5-HT1a
T4 construct: purchased Euroscreen/BioSignal Packard Inc
T4 sequence (P08908 1-422): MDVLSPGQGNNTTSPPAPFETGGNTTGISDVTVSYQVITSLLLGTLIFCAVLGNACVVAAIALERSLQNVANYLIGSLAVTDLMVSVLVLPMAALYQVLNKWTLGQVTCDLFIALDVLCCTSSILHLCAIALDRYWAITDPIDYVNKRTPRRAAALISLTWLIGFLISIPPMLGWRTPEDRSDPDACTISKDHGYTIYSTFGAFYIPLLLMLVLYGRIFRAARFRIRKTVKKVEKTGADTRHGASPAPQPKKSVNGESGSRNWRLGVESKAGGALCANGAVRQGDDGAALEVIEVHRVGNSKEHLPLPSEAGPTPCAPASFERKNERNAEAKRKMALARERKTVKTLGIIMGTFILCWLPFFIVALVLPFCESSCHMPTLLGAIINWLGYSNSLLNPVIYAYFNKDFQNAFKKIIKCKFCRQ
How it was run: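 Membranes bearing the receptor, bought in; radioligand displacement run per supplier protocol.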

D1 = D1 (Homo sapiens, UniProt P21728); test: Radioligand binding, dopamine D1; conditions: Table 4; read-out: Binding affinity, IC50 (nM) D1
Rotarod deficit in mice = type: in vivo, mouse; conditions: mouse, in vivo, po, unit printed as image, read-out: TD50 (median neurotoxic dose)
Description: (§2) The mouse was placed on a 1 inch diameter knurled plastic rod rotating at 6 rpm (Ugo-Basile, Milano, Italy), and the rotarod deficit (%) was obtained by counting the number of animals fallen from the rotating rod within 1 min [Dunham et al., 1957] at 60, 90 and 120 min after the injection of the compound according to the invention(200, 300 or 400 ? ). […] The compounds of the examples were suspended in 3% Tween 80 solution, and were administered (p.o.) 60 min before the testing.

mice = test: Rotarod deficit in mice; type: in vivo, mouse
Description: as §2

hD3 = biological target: T5, hD3 (Homo sapiens, UniProt P35462); test: Radioligand binding, dopamine D3 ([3H]spiperone); conditions: Table 4; [3H]spiperone 1 nM; read-out: Binding affinity, IC50 (nM) D3
T5 construct: purchased BioSignal Packard Inc., Montreal, Canada
How it was run: as §1

hD2L = biological target: T6, hD2L (Homo sapiens, UniProt P14416); test: Radioligand binding, dopamine D2 ([3H]spiperone); conditions: Table 4; [3H]spiperone 1 nM; read-out: Binding affinity, IC50 (nM) D2
T6 construct: purchased BioSignal Packard Inc., Montreal, Canada
How it was run: as §1

5-HT2a = biological target: T7, 5-HT2a (Homo sapiens, UniProt P28223); test: Radioligand binding, 5-HT2a ([3H]Ketanserin); conditions: Table 4; [3H]Ketanserin 1 nM; read-out: Binding affinity, IC50 (nM) 5-HT2a
T7 construct: purchased Euroscreen/BioSignal Packard Inc

5-HT2c = biological target: T8, 5-HT2c (Homo sapiens, UniProt P28335); test: Radioligand binding, 5-HT2c ([3H]Mesulergine); conditions: Table 4; [3H]Mesulergine 1 nM; read-out: Binding affinity, IC50 (nM) 5-HT2c
T8 construct: purchased Euroscreen/BioSignal Packard Inc
T8 sequence (P28335 33-458): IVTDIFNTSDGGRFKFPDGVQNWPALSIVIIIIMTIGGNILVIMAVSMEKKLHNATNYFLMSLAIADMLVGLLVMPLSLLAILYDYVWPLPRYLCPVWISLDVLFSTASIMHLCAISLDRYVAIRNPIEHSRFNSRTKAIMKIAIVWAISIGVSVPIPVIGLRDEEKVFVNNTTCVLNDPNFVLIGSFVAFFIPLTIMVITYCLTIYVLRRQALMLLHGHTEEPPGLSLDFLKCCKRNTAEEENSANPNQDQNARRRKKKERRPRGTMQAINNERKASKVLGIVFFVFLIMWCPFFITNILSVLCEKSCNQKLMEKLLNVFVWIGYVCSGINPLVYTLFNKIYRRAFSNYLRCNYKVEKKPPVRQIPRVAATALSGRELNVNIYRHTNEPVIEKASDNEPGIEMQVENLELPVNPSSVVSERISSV

[2] = Table 2, 1.87 nM [3H]LSD, 37 C, 60 min, read-out: IC50 (nM), binding affinity to the 5-HT6 receptor
[3] = Table 4, read-out: Binding affinity, IC50 (nM) 5-HT6

T5 sequence (P35462 whole entry): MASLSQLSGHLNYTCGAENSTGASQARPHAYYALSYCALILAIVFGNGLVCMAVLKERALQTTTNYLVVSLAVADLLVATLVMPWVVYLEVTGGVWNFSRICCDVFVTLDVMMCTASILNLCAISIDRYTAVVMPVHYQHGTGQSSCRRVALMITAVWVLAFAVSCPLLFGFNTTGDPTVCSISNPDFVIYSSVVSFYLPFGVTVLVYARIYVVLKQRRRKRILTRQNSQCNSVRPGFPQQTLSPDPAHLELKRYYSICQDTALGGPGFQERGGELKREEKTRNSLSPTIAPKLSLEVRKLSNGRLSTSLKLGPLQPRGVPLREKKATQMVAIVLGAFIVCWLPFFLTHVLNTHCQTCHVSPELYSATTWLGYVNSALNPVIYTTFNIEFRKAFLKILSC
T7 sequence (P28223 whole entry): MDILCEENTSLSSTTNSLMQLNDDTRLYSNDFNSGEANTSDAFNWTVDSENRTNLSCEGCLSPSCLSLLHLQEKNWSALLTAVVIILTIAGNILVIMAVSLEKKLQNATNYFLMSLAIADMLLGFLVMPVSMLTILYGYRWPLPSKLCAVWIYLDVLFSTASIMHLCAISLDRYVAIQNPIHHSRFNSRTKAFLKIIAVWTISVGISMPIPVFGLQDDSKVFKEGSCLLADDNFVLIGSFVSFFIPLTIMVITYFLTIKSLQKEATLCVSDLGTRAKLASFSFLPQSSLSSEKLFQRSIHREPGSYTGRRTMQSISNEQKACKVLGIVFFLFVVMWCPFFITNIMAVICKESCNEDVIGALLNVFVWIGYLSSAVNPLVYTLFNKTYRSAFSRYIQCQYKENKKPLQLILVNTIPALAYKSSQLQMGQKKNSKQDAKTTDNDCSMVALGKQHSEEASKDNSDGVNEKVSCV
T2 sequence (P34969 whole entry): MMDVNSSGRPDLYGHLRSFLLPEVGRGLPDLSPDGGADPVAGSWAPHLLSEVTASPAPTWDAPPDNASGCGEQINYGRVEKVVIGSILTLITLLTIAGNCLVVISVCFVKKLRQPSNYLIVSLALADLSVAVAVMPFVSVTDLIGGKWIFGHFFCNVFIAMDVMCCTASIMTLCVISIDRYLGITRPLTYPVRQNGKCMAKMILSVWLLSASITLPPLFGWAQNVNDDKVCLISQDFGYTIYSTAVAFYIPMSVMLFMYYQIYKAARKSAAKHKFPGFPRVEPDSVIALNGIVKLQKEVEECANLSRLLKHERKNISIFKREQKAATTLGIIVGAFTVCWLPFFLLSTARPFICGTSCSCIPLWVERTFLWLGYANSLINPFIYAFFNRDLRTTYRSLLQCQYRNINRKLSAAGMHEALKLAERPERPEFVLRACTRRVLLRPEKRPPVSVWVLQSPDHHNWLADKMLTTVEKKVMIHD
T1 sequence (P50406 whole entry): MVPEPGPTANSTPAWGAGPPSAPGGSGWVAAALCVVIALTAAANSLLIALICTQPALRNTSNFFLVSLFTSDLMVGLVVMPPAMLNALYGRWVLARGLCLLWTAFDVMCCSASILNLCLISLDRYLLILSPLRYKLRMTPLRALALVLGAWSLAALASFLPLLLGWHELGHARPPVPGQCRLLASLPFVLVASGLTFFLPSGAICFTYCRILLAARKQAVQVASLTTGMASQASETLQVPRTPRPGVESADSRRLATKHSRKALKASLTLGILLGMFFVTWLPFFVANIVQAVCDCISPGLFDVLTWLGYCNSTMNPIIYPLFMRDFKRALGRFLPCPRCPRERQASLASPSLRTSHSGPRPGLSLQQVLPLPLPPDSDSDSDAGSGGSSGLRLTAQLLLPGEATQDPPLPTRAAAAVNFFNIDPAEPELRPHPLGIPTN
T6 sequence (P14416 whole entry): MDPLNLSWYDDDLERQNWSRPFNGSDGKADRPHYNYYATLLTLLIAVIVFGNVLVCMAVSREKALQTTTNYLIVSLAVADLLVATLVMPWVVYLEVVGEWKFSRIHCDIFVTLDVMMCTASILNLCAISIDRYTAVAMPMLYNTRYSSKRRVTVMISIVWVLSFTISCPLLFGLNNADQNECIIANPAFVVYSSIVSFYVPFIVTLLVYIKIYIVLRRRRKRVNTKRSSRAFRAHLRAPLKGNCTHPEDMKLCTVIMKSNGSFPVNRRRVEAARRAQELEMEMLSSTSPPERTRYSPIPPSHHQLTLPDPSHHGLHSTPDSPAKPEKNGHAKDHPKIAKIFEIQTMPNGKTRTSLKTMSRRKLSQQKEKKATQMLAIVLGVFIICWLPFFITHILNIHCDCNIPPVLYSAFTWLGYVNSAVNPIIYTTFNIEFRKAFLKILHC
Chain of D1 (P21728 whole entry): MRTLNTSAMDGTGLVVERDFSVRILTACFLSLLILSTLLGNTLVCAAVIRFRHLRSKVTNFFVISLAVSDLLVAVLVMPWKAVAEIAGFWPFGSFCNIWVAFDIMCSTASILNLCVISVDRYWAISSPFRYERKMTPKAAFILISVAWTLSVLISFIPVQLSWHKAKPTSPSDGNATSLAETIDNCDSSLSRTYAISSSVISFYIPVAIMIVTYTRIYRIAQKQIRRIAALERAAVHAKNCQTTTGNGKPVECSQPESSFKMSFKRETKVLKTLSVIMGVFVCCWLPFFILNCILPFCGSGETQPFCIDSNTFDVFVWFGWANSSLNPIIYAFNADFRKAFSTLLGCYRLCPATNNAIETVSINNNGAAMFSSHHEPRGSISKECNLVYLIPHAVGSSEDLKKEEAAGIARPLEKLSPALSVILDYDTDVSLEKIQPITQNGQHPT

Structure (SMILES) | IC50 [1, 2] [nM] | IC50 [1, 3] [nM] | IC50 (5-HT7) [nM] | IC50 (hD4.2 receptor) [nM] | IC50 (5-HT1a) [nM] | IC50 (D1) [nM] | TD50 at 120 min (Rotarod deficit in mice) [mg/kg] | Rotarod deficit (%) (mice; 200 p.o. (dose unit not given)) | Rotarod deficit (%) (mice; 300 p.o. (dose unit not given)) | Rotarod deficit (%) (mice; 400 p.o. (dose unit not given)) | IC50 (hD3) [nM] | IC50 (hD2L) [nM] | IC50 (5-HT2a) [nM] | IC50 (5-HT2c) [nM] | binding affinity at 5-HT6 receptor labeled by [3H]LSD, in words ([1]; comment on Table 2) | melting point [°C]
COc1ccc([C@]2(C)C(=O)c3c(N4CCNCC4)cc(Cl)cc3N(Cc3ccccc3)C2=O)cc1 [Example 13-2, (R)-1-Benzyl-7-chloro-3-(4-methoxy-phenyl)-3-methyl-5-piperazin-1-yl-1H-quinoline-2,4-dione] | 9 | 9 | 9520 | > 10000 | 3280 | 5210 | > 400 | 0 | 0 | 0 | 2580 | > 10000 | 2840 | 9740 | – | –
C[C@]1(c2ccc(O)cc2)C(=O)c2c(N3CCNCC3)cc(Cl)cc2N(Cc2ccccc2)C1=O [Example 14-1, (S)-1-Benzyl-7-chloro-3-(4-hydroxy-phenyl)-3-methyl-5-piperazin-1-yl-1H-quinoline-2,4-dione] | 1.9 | 1.9 | 9860 | > 10000 | 7950 | 7070 | > 400 | 0 | 0 | 0 | 7650 | > 10000 | 2000 | > 10000 | significant affinities | –
C[C@@]1(c2ccc(O)cc2)C(=O)c2c(N3CCNCC3)cc(Cl)cc2N(Cc2ccccc2)C1=O [Example 14-2, (R)-1-Benzyl-7-chloro-3-(4-hydroxy-phenyl)-3-methyl-5-piperazin-1-yl-1H-quinoline-2,4-dione] | 13.3 | 13.3 | 9240 | > 10000 | 5890 | 1540 | > 400 | 0 | 0 | 0 | 1760 | > 10000 | 6380 | > 10000 | – | –
CC1(c2ccccc2)C(=O)c2c(N3CCNCC3)cc(Cl)cc2N(Cc2ccccc2)C1=O (centres unmarked) [Example 22, 1-Benzyl-7-chloro-3-methyl-3-phenyl-5-piperazin-1-yl-1H-quinoline-2,4-dione] | 2.7 | 2.3 | 5070 | > 10000 | 3910 | 5140 | > 400 | 0 | 0 | 0 | 1810 | 2450 | 2900 | 1830 | – | –
CC1(c2cccc(O)c2)C(=O)c2c(N3CCNCC3)cc(Cl)cc2N(Cc2ccccc2)C1=O (centres unmarked) [Example 51, 1-Benzyl-7-chloro-3-(3-hydroxy-phenyl)-3-methyl-5-piperazin-1-yl-1H-quinoline-2,4-dione] | 6.2 | 20.7 | 7580 | 9460 | 8450 | 6390 | – | – | – | – | 9880 | 8650 | 7550 | 8740 | – | 238 to 240
